The subject of one data set is anesthetized rabbits. The data set is described as follows: clofilium-induced Torsades de Pointes in methoxamine-treated anesthetized rabbits. The data set is classed as in vivo, rabbit. How it is done:
Spontaneous TdP was induced with methoxamine (α1-adrenoceptor agonist) followed by clofilium (Ikr blocker) in anesthetized rabbits as previously described by Carlsson et al (J. Cardiovas. Pharmacol 1990; 16:276-285). RAN was given via intravenous (iv) infusion 10 min prior to clofilium. Arterial pressure (BP), lead II ECG and endocardial Monophasic Action Potential (MAP) were recorded. QT interval was corrected for heart rate by using a formula developed for rabbits: QTc=QT−0.175*(RR−300).

A further data set has as its system female rabbit hearts. The data set is described as follows: female rabbit isolated hearts paced at 1 Hz: monophasic action potentials and 12-lead ECG.
Data set [1] has as its system slow component of the delayed rectifier K+ current. The conditions noted are these: at 30 μM; cited from earlier work.
For data set [2] the following is noted: cited from earlier work.
Data set [3] has as its target HERG channels expressed in HEK293 cells (Homo sapiens, UniProt Q12809). The conditions noted are these: for time constant for development of block of IHERG: human. From the text:
Human-ether-a-go-go related gene (HERG) encodes the cardiac rapidly activating delayed rectifier K^+ current (IKr). Inhibition of HERG K^+ current (IHERG) is a mechanism for drug-induced long QT syndrome.

In data set [4] the test system is rabbit and guinea-pig isolated hearts and canine ventricular myocytes. The conditions noted are these: cited from earlier work.
For data set [5], the system named is inward rectifier K+ current (IKI). The conditions noted are these: cited from earlier work.
Another data set has as its system IKr. As to conditions: cited from earlier work.
Data set [6] concerns transient outward K+ current (Ito). As to conditions: cited from earlier work.
Setting [7] is: ranolazine 10 μM in the presence of 60 nM E-4031, n=9, p<0.01.
Where [8] appears, read: iv infusion 10 min prior to clofilium, n=6.

Here are results for 4 compounds from patent US20080153840A1, “REDUCTION OF CARDIOVASCULAR SYMPTOMS” (priority 2006, published 2008).

Structures are written as SMILES. Structures can show the parent of a compound that is named as a salt. Where two headings read alike, the source gives them in different places.

Chain of HERG channels expressed in HEK293 cells (Q12809 whole entry): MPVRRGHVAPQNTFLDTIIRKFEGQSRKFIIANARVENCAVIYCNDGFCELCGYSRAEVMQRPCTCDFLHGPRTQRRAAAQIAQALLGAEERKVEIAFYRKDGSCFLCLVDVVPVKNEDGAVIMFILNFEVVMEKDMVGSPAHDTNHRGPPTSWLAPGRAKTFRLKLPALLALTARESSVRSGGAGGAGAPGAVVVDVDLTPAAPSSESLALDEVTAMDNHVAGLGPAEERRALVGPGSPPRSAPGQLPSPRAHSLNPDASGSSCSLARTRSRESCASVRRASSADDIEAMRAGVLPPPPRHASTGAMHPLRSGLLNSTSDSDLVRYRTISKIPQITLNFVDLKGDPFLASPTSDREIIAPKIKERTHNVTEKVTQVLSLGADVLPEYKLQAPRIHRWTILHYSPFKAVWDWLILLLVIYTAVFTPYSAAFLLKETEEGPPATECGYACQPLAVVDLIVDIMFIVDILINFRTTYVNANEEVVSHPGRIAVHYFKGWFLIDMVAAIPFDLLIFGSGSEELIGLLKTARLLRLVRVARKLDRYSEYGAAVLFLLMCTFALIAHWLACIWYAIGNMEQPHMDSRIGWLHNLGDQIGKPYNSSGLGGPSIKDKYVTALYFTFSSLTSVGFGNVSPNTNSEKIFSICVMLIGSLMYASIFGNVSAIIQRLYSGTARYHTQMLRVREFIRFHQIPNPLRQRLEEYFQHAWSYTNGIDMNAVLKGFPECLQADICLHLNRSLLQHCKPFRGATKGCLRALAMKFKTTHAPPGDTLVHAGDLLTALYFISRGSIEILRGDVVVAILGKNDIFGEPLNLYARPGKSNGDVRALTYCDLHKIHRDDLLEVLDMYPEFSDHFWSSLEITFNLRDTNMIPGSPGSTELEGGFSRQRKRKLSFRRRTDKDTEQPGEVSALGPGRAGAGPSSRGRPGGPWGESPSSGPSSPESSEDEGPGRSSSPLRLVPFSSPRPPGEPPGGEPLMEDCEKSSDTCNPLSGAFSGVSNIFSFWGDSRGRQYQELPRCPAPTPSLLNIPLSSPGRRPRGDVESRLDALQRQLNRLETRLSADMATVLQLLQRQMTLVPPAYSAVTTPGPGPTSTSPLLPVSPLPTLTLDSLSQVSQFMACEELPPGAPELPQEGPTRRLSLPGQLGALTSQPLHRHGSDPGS

For the compound `CCCCCCC[N+](CC)(CC)CCCCc1ccc(Cl)cc1.[Br-]` [Clofilium, 4-chloro-N,N-diethyl-N-heptyl benzenebutanaminium bromide], in the data set on anesthetized rabbits (clofilium after methoxamine, rabbits with TdP/rabbits), the “rabbits with TdP” value is reported as 6/6. This compound also showed an MAPD90 after clofilium in the data set on anesthetized rabbits (from 123±6 ms, n=6, P<0.05) of 201 ± 21 ms. Besides, in the data set with anesthetized rabbits (from 130±4 ms, n=6, P<0.05), the QTc after clofilium was found to be 200 ± 18 ms.
On to `Cc1cccc(CCN2CCC(C(=O)c3ccc(NS(C)(=O)=O)cc3)CC2)n1` [E-4031, N-(4-[(1-[2-(6-methyl-2-pyridyl)ethyl]-4-piperidylcarbonyl]phenyl)methanesulfonamidedihydrochloride dehydrate], for which, in the data set with female rabbit hearts, the “epicardial MAPD90 with drug” value is 254 ± 6 ms, the “increase of transmural MAPD dispersion” value amounted to 74 ± 7 ms, the “prolongation of duration of epicardial MAP (MAPD90)” value came to 75 ± 5 ms and the “transmural MAPD dispersion with drug” value amounted to 90 ± 10 ms.
Consider `NC1=N[C@H](O)[C@H]2[C@H]3O[C@]4(O)O[C@@H]([C@@H](O)[C@@]2(N1)[C@@H]4O)[C@]3(O)CO` [TTX, Tetrodotoxin], for which, in the data set on female rabbit hearts, the “changes in the QRS interval” value is recorded as “no or minimal changes”, the “decrease of transmural dispersion” value was determined as 47 ± 11 ms, the “effect on MAPD90” value was “no effects” and the “effect on transmural dispersion of MAPD90” value is recorded as “no effects”. In the data set with female rabbit hearts, the “shortening of MAPD” value was 33 ± 8 ms.
For `COc1ccccc1OCC(O)CN1CCN(CC(=O)Nc2c(C)cccc2C)CC1` (stereo not shown) [ranolazine, N-(2,6-dimethylphenyl)-4-[2-hydroxy-3-(2-methoxyphenoxy)propyl]-1-piperazineacetamide], the “inhibition of the slow component of the delayed rectifier K+ current (IKr)” value in [1] is recorded as around 17%. Moreover, the “effect on MAPD90” value in data set [2] (in the absence of ATX-II) is given as “increased”. The “effect on MAPD” value in [2] (in the presence of 2 nM ATX-II) is “shortened”. For the same compound, the “character of block of IHERG” value in data set [3] is “reversible and voltage-dependent, but frequency-independent”. In addition, the “time constant for development of block of IHERG” value (“time constant for development” below) in [3] (10 μM) turned out to be 76.6 ± 1.6 ms. For the same compound, the “time constant for development” value in data set [3] (30 μM) came out at 35.8 ± 2.4 ms. The “time constant for development” value in data set [3] (100 μM) turned out to be 19.4 ± 1.7 ms. Besides, the “increase in monophasic APD (MAPD) or QT interval” value in data set [4] (at therapeutic concentrations) is 2 to 6 ms. In addition, the pro-arrhythmic activity entry in data set [4] is “not associated with pro-arrhythmic activity”. The “effect on IKI” value in data set [5] is “no effect”. The “changes in the QRS interval” value with female rabbit hearts is listed as “no or minimal changes”. In addition, in the data set on female rabbit hearts (ranolazine 10 μM), the “effect on spontaneous and pause-triggered episodes of TdP induced by 60 nM E-4031” value is given as “abolished”. Besides, in the data set with female rabbit hearts (setting [7]), the “decrease of transmural dispersion” value was 40 ± 9 ms and the “shortening of MAPD90” value is 19 ± 5 ms. The “effect on transmural dispersion of MAPD90” value in the data set with female rabbit hearts (ranolazine 5-30 μM alone) is listed as “without increasing”. Further, in the data set with female rabbit hearts (ranolazine 5-30 μM alone, concentration-dependent, n=7, p<0.01), the “prolongation of epicardial MAPD90” value turned out to be 32±4%. The “occurrence of TdP” value with anesthetized rabbits (RAN at 25 μM, P<0.005 vs vehicle control) is on record as 0/6. In the data set with anesthetized rabbits (RAN at 25 μM, from 32±1 ms, n=5, P>0.05), this compound gave a QRS interval of 33 ± 1 ms. In the data set with anesthetized rabbits (RAN at 25 μM, from 79±2 ms, n=5, P>0.05), this compound showed a PR interval of 77 ± 1 ms. The compound further returned a heart rate in the data set with anesthetized rabbits (RAN at 25 μM, from 186±9 bpm, n=5, P>0.05) of 204±10 bpm. In the data set on anesthetized rabbits (setting [8]), the “ED50 for suppression of clofilium-induced MAPD90 prolongation” value was found to be 15 µM, the “ED50 for suppression of clofilium-induced QTc prolongation” value was 10 µM and the “ED50 for suppression of clofilium-induced TdP” value was determined as 10 µM. For the same compound, the “effect on IKr” value in the data set with IKr is on record as “inhibit”. Further, the “effect on Ito” value in data set [6] is reported as “no effect”.
